Converted amounts (≈) assume the structure as drawn. The source made the active and inactive calls. No cut-off for these calls is given here.

Holding throughout (format): functional
One assay has as its system Aspergillus niger. Briefly: Antimicrobial activity against Aspergillus niger MTCC 404 assessed as growth inhibition after 5 days by broth microdilution method. (In general: Dilution methods test growth across graded concentrations, often in twofold steps.)
In another assay the test system is Micrococcus luteus. Briefly: Antimicrobial activity against Micrococcus luteus MTCC 2470 assessed as growth inhibition after 24 hr by broth microdilution method.
The test system of the next assay is Pichia kudriavzevii. Briefly: Antimicrobial activity against Pichia kudriavzevii MTCC 231 assessed as growth inhibition after 24 hr by broth microdilution method. As to conditions: MTCC 231, 24 h.
A further assay has as its system Pseudomonas aeruginosa. Briefly: Antimicrobial activity against Pseudomonas aeruginosa MTCC 424 assessed as growth inhibition after 24 hr by broth microdilution method.
The test system of another assay is Enterobacter cloacae. Briefly: Antimicrobial activity against Enterobacter cloacae MTCC 509 assessed as growth inhibition after 24 hr by broth microdilution method.
The subject of the next assay is Klebsiella pneumoniae. Briefly: Antimicrobial activity against Klebsiella pneumoniae MTCC 109 assessed as growth inhibition after 24 hr by broth microdilution method.
For a further assay, the system named is Aspergillus parasiticus. Briefly: Antimicrobial activity against Aspergillus parasiticus MTCC 2797 assessed as growth inhibition after 5 days by broth microdilution method.
The subject of the next assay is Candida albicans. Briefly: Antimicrobial activity against Candida albicans MTCC 3017 assessed as growth inhibition after 24 hr by broth microdilution method. As to conditions: MTCC 3017, 24 h.
The test system of another assay is Staphylococcus aureus. Briefly: Antimicrobial activity against Staphylococcus aureus MTCC 3160 assessed as growth inhibition after 24 hr by broth microdilution method.
The next assay has as its system Escherichia coli. Briefly: Antimicrobial activity against Escherichia coli MTCC 43 assessed as growth inhibition after 24 hr by broth microdilution method.
For another assay, the system named is Aspergillus sydowii. Briefly: Antimicrobial activity against Aspergillus sydowii MTCC 4335 assessed as growth inhibition after 5 days by broth microdilution method.
The next assay has as its system Bacillus subtilis. Briefly: Antimicrobial activity against Bacillus subtilis MTCC 121 assessed as growth inhibition after 24 hr by broth microdilution method.
In the next assay the test system is Trichophyton rubrum. Briefly: Antimicrobial activity against Trichophyton rubrum MTCC 296 assessed as growth inhibition after 5 days by broth microdilution method.
The test system of another assay is Burkholderia cepacia. Briefly: Antimicrobial activity against Burkholderia cepacia MTCC 438 assessed as growth inhibition after 24 hr by broth microdilution method.

The term MIC denotes the lowest concentration that inhibits growth of the organism. Take `O=C(O)/C=C/c1ccccc1` [CINNAMIC ACID]: the MIC turned out to be 1.68 mM (≈ 249 µg/mL) in the assay on Aspergillus niger (MTCC 404, 120 h); 6.75 mM (≈ 1000 µg/mL) in the assay on Micrococcus luteus (MTCC 2470, 24 h); 0.84 mM (≈ 124 µg/mL) with Pichia kudriavzevii; 13.5 mM (≈ 2000 µg/mL) in the assay with Pseudomonas aeruginosa (MTCC 424, 24 h); 6.75 mM (≈ 1000 µg/mL) in the assay on Enterobacter cloacae (MTCC 509, 24 h); 6.75 mM (≈ 1000 µg/mL) in the assay on Klebsiella pneumoniae (MTCC 109, 24 h). In addition, the MIC stood at 3.37 mM (≈ 499 µg/mL) in the assay with Aspergillus parasiticus (MTCC 2797, 120 h); 0.42 mM (≈ 62.2 µg/mL) with Candida albicans; 3.37 mM (≈ 499 µg/mL) in the assay with Staphylococcus aureus (MTCC 3160, 24 h); 13.5 mM (≈ 2000 µg/mL) with Escherichia coli (MTCC 43, 24 h); 1.68 mM (≈ 249 µg/mL) with Aspergillus sydowii (MTCC 4335, 120 h); 6.75 mM (≈ 1000 µg/mL) in the assay on Bacillus subtilis (MTCC 121, 24 h). In addition, the MIC with Trichophyton rubrum (MTCC 296, 120 h) came out at 0.42 mM (≈ 62.2 µg/mL); in the assay with Burkholderia cepacia (MTCC 438, 24 h) it was 6.75 mM (≈ 1000 µg/mL).
For the compound `C/C=C/c1ccc(OC)cc1` [ANETHOLE], the MIC entry in the assay on Aspergillus niger, with Micrococcus luteus, in the assay with Pseudomonas aeruginosa, with Enterobacter cloacae, with Klebsiella pneumoniae and with Aspergillus parasiticus was “inactive” throughout. Moreover, the MIC result in the assay on Staphylococcus aureus, with Escherichia coli, in the assay on Aspergillus sydowii, in the assay with Bacillus subtilis, with Trichophyton rubrum and with Burkholderia cepacia was “inactive” each time. The MIC in the assay on Pichia kudriavzevii and with Candida albicans was 6.74 mM (≈ 999 µg/mL) each time.
Turning to `CC1(C)S[C@@H]2[C@H](NC(=O)[C@H](N)c3ccccc3)C(=O)N2[C@H]1C(=O)O` [AMPICILLIN], the MIC with Micrococcus luteus (MTCC 2470, 24 h) was determined as 0.01 mM (≈ 3.49 µg/mL); in the assay on Pseudomonas aeruginosa (MTCC 424, 24 h), 2.8 mM (≈ 978 µg/mL); with Enterobacter cloacae (MTCC 509, 24 h) it was 5.7 mM (≈ 1990 µg/mL); with Klebsiella pneumoniae (MTCC 109, 24 h) it was 5.7 mM (≈ 1990 µg/mL); in the assay on Staphylococcus aureus (MTCC 3160, 24 h), 0.01 mM (≈ 3.49 µg/mL); with Escherichia coli (MTCC 43, 24 h) it was 0.08 mM (≈ 28 µg/mL). Moreover, the MIC was found to be 0.01 mM (≈ 3.49 µg/mL) in the assay with Bacillus subtilis (MTCC 121, 24 h) and 5.7 mM (≈ 1990 µg/mL) with Burkholderia cepacia (MTCC 438, 24 h).
For `O=Cc1ccc2c(c1)OCO2` [PIPERONAL], the MIC is 3.33 mM (≈ 500 µg/mL) in the assay with Aspergillus niger (MTCC 404, 120 h); 3.33 mM (≈ 500 µg/mL) with Micrococcus luteus (MTCC 2470, 24 h); 0.83 mM (≈ 125 µg/mL) with Pichia kudriavzevii; 0.83 mM (≈ 125 µg/mL) in the assay on Pseudomonas aeruginosa (MTCC 424, 24 h); 3.33 mM (≈ 500 µg/mL) in the assay on Enterobacter cloacae (MTCC 509, 24 h); 3.33 mM (≈ 500 µg/mL) in the assay with Klebsiella pneumoniae (MTCC 109, 24 h). Also, the MIC with Aspergillus parasiticus (MTCC 2797, 120 h) was found to be 3.33 mM (≈ 500 µg/mL); in the assay on Candida albicans it was 0.83 mM (≈ 125 µg/mL); in the assay on Staphylococcus aureus (MTCC 3160, 24 h), 3.33 mM (≈ 500 µg/mL); with Escherichia coli (MTCC 43, 24 h) it was 3.33 mM (≈ 500 µg/mL); with Aspergillus sydowii (MTCC 4335, 120 h) it was 3.33 mM (≈ 500 µg/mL); in the assay with Bacillus subtilis (MTCC 121, 24 h), 6.66 mM (≈ 1000 µg/mL). Moreover, in the assay on Trichophyton rubrum (MTCC 296, 120 h), the minimum inhibitory concentration (MIC) is 0.83 mM (≈ 125 µg/mL). For the same compound, the MIC entry in the assay on Burkholderia cepacia was “inactive”.
On to `O=C/C=C/c1ccc2c(c1)OCO2`, for which the MIC in the assay on Aspergillus niger (MTCC 404, 120 h) amounted to 1.42 mM (≈ 250 µg/mL); in the assay with Micrococcus luteus (MTCC 2470, 24 h), 2.84 mM (≈ 500 µg/mL); in the assay on Pichia kudriavzevii it was 0.35 mM (≈ 61.7 µg/mL); in the assay with Pseudomonas aeruginosa (MTCC 424, 24 h), 0.35 mM (≈ 61.7 µg/mL); in the assay on Enterobacter cloacae (MTCC 509, 24 h), 1.42 mM (≈ 250 µg/mL); in the assay with Klebsiella pneumoniae (MTCC 109, 24 h), 1.42 mM (≈ 250 µg/mL). Besides, the minimum inhibitory concentration (MIC) in the assay on Aspergillus parasiticus (MTCC 2797, 120 h) amounted to 0.71 mM (≈ 125 µg/mL); with Candida albicans, 0.35 mM (≈ 61.7 µg/mL); in the assay on Staphylococcus aureus (MTCC 3160, 24 h) it was 2.84 mM (≈ 500 µg/mL); in the assay with Escherichia coli (MTCC 43, 24 h), 2.84 mM (≈ 500 µg/mL); in the assay on Aspergillus sydowii (MTCC 4335, 120 h) it was 0.35 mM (≈ 61.7 µg/mL); in the assay on Bacillus subtilis (MTCC 121, 24 h) it was 2.84 mM (≈ 500 µg/mL). Further, the MIC in the assay with Trichophyton rubrum (MTCC 296, 120 h) was found to be 0.35 mM (≈ 61.7 µg/mL); in the assay on Burkholderia cepacia (MTCC 438, 24 h), 0.71 mM (≈ 125 µg/mL).
As to `COc1ccc(/C=C/C=O)cc1` [PARA-METHOXY CINNAMALDEHYDE], the MIC in the assay with Aspergillus niger (MTCC 404, 120 h) stood at 3.08 mM (≈ 500 µg/mL); in the assay on Micrococcus luteus (MTCC 2470, 24 h) it was 3.08 mM (≈ 500 µg/mL); in the assay with Pichia kudriavzevii it was 0.77 mM (≈ 125 µg/mL); in the assay on Pseudomonas aeruginosa (MTCC 424, 24 h), 0.77 mM (≈ 125 µg/mL); in the assay with Enterobacter cloacae (MTCC 509, 24 h), 3.08 mM (≈ 500 µg/mL); in the assay on Klebsiella pneumoniae (MTCC 109, 24 h), 3.08 mM (≈ 500 µg/mL). Besides, the minimum inhibitory concentration (MIC) in the assay on Aspergillus parasiticus (MTCC 2797, 120 h) is 3.08 mM (≈ 500 µg/mL); in the assay with Candida albicans, 0.77 mM (≈ 125 µg/mL); in the assay with Staphylococcus aureus (MTCC 3160, 24 h), 3.08 mM (≈ 500 µg/mL); in the assay on Escherichia coli (MTCC 43, 24 h) it was 3.08 mM (≈ 500 µg/mL); with Aspergillus sydowii (MTCC 4335, 120 h) it was 3.08 mM (≈ 500 µg/mL); with Bacillus subtilis (MTCC 121, 24 h), 6.16 mM (≈ 999 µg/mL). Also, in the assay on Trichophyton rubrum (MTCC 296, 120 h), the MIC stood at 0.77 mM (≈ 125 µg/mL). Also, the MIC result in the assay with Burkholderia cepacia is “inactive”.
Consider `CCOc1ccc(/C=C/C=O)cc1OC`, for which the MIC in the assay on Aspergillus niger (MTCC 404, 120 h) was determined as 4.85 mM (≈ 1000 µg/mL); in the assay with Micrococcus luteus (MTCC 2470, 24 h), 4.85 mM (≈ 1000 µg/mL); in the assay with Pichia kudriavzevii it was 4.85 mM (≈ 1000 µg/mL); with Pseudomonas aeruginosa (MTCC 424, 24 h), 4.85 mM (≈ 1000 µg/mL); in the assay on Enterobacter cloacae (MTCC 509, 24 h), 9.7 mM (≈ 2000 µg/mL); with Klebsiella pneumoniae (MTCC 109, 24 h) it was 9.7 mM (≈ 2000 µg/mL). Moreover, the MIC was 2.42 mM (≈ 499 µg/mL) with Aspergillus parasiticus (MTCC 2797, 120 h); 2.42 mM (≈ 499 µg/mL) in the assay with Candida albicans; 2.42 mM (≈ 499 µg/mL) in the assay with Staphylococcus aureus (MTCC 3160, 24 h); 9.7 mM (≈ 2000 µg/mL) in the assay with Escherichia coli (MTCC 43, 24 h); 4.85 mM (≈ 1000 µg/mL) in the assay with Aspergillus sydowii (MTCC 4335, 120 h); 4.85 mM (≈ 1000 µg/mL) with Bacillus subtilis (MTCC 121, 24 h). Also, the MIC in the assay on Trichophyton rubrum (MTCC 296, 120 h) was found to be 2.42 mM (≈ 499 µg/mL); in the assay on Burkholderia cepacia (MTCC 438, 24 h), 4.85 mM (≈ 1000 µg/mL).

These data come from ChEMBL document CHEMBL3046948, “Synthesis and SAR investigation of natural phenylpropene-derived methoxylated cinnamaldehydes and their novel Schiff bases as potent antimicrobial and antioxidant agents” (2013).
